Earlier results as cited in patent US7550593B2, “Process for the preparation of finasteride Form I” (Cipla Limited, priority 2003, dated 2009).

Tested on: serum DHT concentration
Details: within 24 hours of oral dosing with a 1 mg tablet

CC(C)(C)NC(=O)[C@H]1CC[C@H]2[C@@H]3CC[C@H]4NC(=O)C=C[C@]4(C)[C@H]3CC[C@]12C [Finasteride, 17β-(N-t-butylcarbamoyl)-4-aza-5-alpha-androst-1-ene-3-one]
suppression of serum DHT concentration: 65%
